This passage reports IC50 results from ChEMBL document CHEMBL1121669, “Nucleosides. 114. 5'-O-Glucuronides of 5-fluorouridine and 5-fluorocytidine. Masked precursors of anticancer nucleosides” (1981).

This assay deals with P815. As to the kind of experiment: Cytotoxicity against P815 tumor cell line. It counts as functional. The conditions noted are these: Mus musculus, read-out: ID50 (the source's name).

Take `O=C([O-])C1OC(OC[C@H]2OC(n3cc(F)c(=O)[nH]c3=O)[C@H](O)[C@@H]2O)[C@H](O)[C@@H](O)[C@@H]1O.[Na+]` (some centres not stated): the IC50 was determined as 6 µg/mL.

`Nc1nc(=O)n(C2O[C@H](CO[C@@H]3OC(C(=O)[O-])[C@@H](O)[C@H](O)[C@H]3O)[C@@H](O)[C@H]2O)cc1F.[Na+]` (some centres not stated): the IC50 was 6 µg/mL.
